From PMC7005745 (Scientific Reports, 2020) come the findings set out here.

Like-named read-outs stand apart in the source and are kept apart here.

In one series the test system is YopH secretion (T3SS). In kind it is cell-based, Yersinia pseudotuberculosis.
Series [1] relates to Y. pseudotuberculosis serotype III strain YPIII(pIB102E-lux). It is filed as cell-based, Yersinia pseudotuberculosis.
The test system of the next series is yopE expression (T3SS). In kind it is cell-based, Yersinia pseudotuberculosis. Particulars: for IC50: read-out: E-lux IC50.
The test system of series [2] is Y. pseudotuberculosis YPIII(pIB102; pFU95). In kind it is cell-based, Yersinia pseudotuberculosis.
In series [3] the test system is wild-type P. aeruginosa strain PAK infecting J774 cells.
Series [4] has as its system P. aeruginosa PAK(pCS500). In kind it is cell-based, Pseudomonas aeruginosa.
Series [5] relates to ExoS expression (T3SS), PAK(pCS500). In kind it is cell-based, Pseudomonas aeruginosa. Particulars: read-out: IC50 ExoS-gfp.
For series [6], the system named is secretion of Yop effector proteins (T3SS), YPIII(pIB102). It is filed as cell-based, Yersinia pseudotuberculosis. Particulars: 40 µM, Western blot. A general note: Immunoblotting shows a protein as a band on a membrane.
The mark [7] stands for this setting: YopH secretion, YPIII(pIB102E-lux), T3S-inducing conditions, compounds 1–100 µM.
The mark [8] stands for this setting: Y. pseudotuberculosis, LB with 2.5 mM CaCl2, 37 °C, OD600 up to 24 h.
The mark [9] stands for this setting: yopE expression, YPIII(pIB102E-lux), T3S-inducing conditions, compounds 1–100 µM.
Where [10] appears, read: combined yopE-lux and YopH phosphatase assay.

Consider (±)-δ-Viniferin [compound 9], for which the IC50 in the series on YopH secretion (T3SS) (setting [7]) came out at 15 µM; with yopE expression (T3SS) (setting [9]) it was 29 µM. Further, the Growth inhibition entry in series [1] (setting [8]) is reported as “No”.

With `C#CCOc1ccc(-c2oc3cc(O)cc(/C=C/c4ccc(O)cc4)c3c2-c2cc(O)cc(O)c2)cc1` [compound 13, Propagylated viniferifuran], in the series with YopH secretion (T3SS), the midpoint of inhibition, the IC50, lay at 3 µM. For the same compound, in series [2], the Binding to bacteria entry is on record as “clear binding” and the “Competition of binding by free viniferifuran” value is on record as “binding could be outcompeted”. Besides, the half-inhibitory concentration (IC50) in the series with yopE expression (T3SS) turned out to be 6 µM.

In the case of `Oc1ccc(/C=C/c2cc(O)cc3c2[C@@H](c2cc(O)cc(O)c2)[C@H](c2ccc(O)cc2)O3)cc1` [compound 5, (+)-ε-Viniferin], in series [3], the “Efficacy Pa J774” value is “modest or no efficacy”. Besides, the values for the IC50 with YopH secretion (T3SS) (setting [7]) and in the series with yopE expression (T3SS) (setting [9]) were 15 µM and > 50 µM, respectively. Moreover, the Growth inhibition result in series [1] (setting [8]) is recorded as “No”.

As for Anigopreissin A [compound 11], the IC50 in the series with YopH secretion (T3SS) was 6 µM; in series [5] it was 15 µM; with yopE expression (T3SS), 12 µM. In the series on YopH secretion (T3SS), the “Inhibition of YopH secretion (in words)” value is “dose-dependent inhibition”. Also, the “Toxicity J774” value in the series with J774 cells was “Some tox”. The Growth inhibition result in series [1] was “detrimental effect on bacterial growth and Yes”. The “Tocxicity P.a.” value in series [4] is recorded as “No”. For the same compound, in the series with yopE expression (T3SS), the “Inhibition of yopE expression (in words)” value is reported as “dose-dependent inhibition”.

`Oc1ccc(/C=C\c2cc(O)cc3oc(-c4ccc(O)cc4)c(-c4cc(O)cc(O)c4)c23)cc1` [compound 8, Viniferifuran]: the “Reversibility of block of effector secretion (T3SS) after washing” value in series [6] is reported as “irreversibly block secretion of effector molecules”; in [6] (listed as viniferifuran), “irreversible”. In the series on YopH secretion (T3SS) (1–100 µM, Fig. 1b), the “Inhibition of YopH secretion (in words)” value is given as “dose-dependent inhibition”. In addition, the 50% inhibitory concentration (IC50) with YopH secretion (T3SS) (setting [7]) was 4 µM; in series [5] it was 11 µM; in the series with yopE expression (T3SS) (setting [9]) it was 10 µM. In the series with J774 cells, the “Toxicity J774” value is on record as “Tox”. Also, the Growth inhibition result in series [1] (setting [8]) was “without any effect on bacterial growth and No”. In addition, the “Tocxicity P.a.” value in [4] is “No”. The “Inhibition of yopE expression (in words)” value with yopE expression (T3SS) (1–100 µM, Fig. 1a) is reported as “dose-dependent inhibition”. In the series on yopE expression (T3SS) (setting [10]), the “Inhibition of the T3SS (in words)” value is reported as “good inhibition”.

Consider (±)-Dehydro-ampelopsin B [compound 4], for which the “Efficacy Pa J774” value in series [3] is “No”. In addition, the figures for the IC50 (in the series on YopH secretion (T3SS); in [5]; in the series on yopE expression (T3SS)) were 20 µM, 33 µM and 40 µM, respectively. Moreover, the “Toxicity J774” value in the series on J774 cells is given as “No”. Besides, in [1], the Growth inhibition result is “No”. In addition, the “Tocxicity P.a.” value in [4] is “No”. In addition, the “Inhibition of the T3SS (in words)” value in the series on yopE expression (T3SS) is reported as “no or modest inhibition”.

Consider `Oc1ccc(-c2oc3ccc(/C=C/c4cc(O)cc(O)c4)cc3c2-c2cc(O)cc(O)c2)cc1` [compound 10, Dehydro-δ-viniferin], for which the “Inhibition of YopH secretion (in words)” value with YopH secretion (T3SS) (1–100 µM, Fig. 1b) is on record as “dose-dependent inhibition”. Moreover, the half-inhibitory concentration (IC50) in the series on YopH secretion (T3SS) (setting [7]) came out at 4 µM; in [5], 8 µM; in the series on yopE expression (T3SS) (setting [9]), 5 µM. Further, the “Toxicity J774” value in the series on J774 cells is recorded as “Tox”. Also, the “Tocxicity P.a.” value in series [4] is “No”. Besides, in the series on yopE expression (T3SS) (1–100 µM, Fig. 1a), the “Inhibition of yopE expression (in words)” value is listed as “dose-dependent inhibition”.

Consider `Oc1ccc([C@@H]2Cc3cc(O)cc4c3[C@H](c3cc(O)cc(O)c32)[C@@H](c2ccc(O)cc2)O4)cc1` (racemic) [compound 3, (±)-Ampelopsin B], for which the “Efficacy Pa J774” value in series [3] is “No”. For the same compound, the figures for the IC50 (in the series with YopH secretion (T3SS); in [5]; with yopE expression (T3SS)) were 40 µM, 134 µM and > 50 µM, respectively. Moreover, the “Toxicity J774” value in the series on J774 cells is on record as “No”. Besides, in series [1], the Growth inhibition result was “No”. Also, the “Tocxicity P.a.” value in [4] is recorded as “No”. Besides, the “Inhibition of the T3SS (in words)” value with yopE expression (T3SS) is “no or modest inhibition”.

On to `Oc1ccc([C@H]2c3c(O)cc(O)cc3[C@H]3c4c(cc(O)cc4[C@@H]2O)O[C@@H]3c2ccc(O)cc2)cc1` (racemic) [compound 2, (±)-Ampelopsin A], for which the “Efficacy Pa J774” value in series [3] is “No”. Besides, the concentration for half-maximal inhibition (IC50) in the series with YopH secretion (T3SS) (setting [7]) was > 50 µM; in series [5] it was > 200 µM; with yopE expression (T3SS) (setting [9]), > 50 µM. For the same compound, in the series with J774 cells, the “Toxicity J774” value was “No”. Moreover, the Growth inhibition result in series [1] (setting [8]) was “No”. Moreover, the “Tocxicity P.a.” value in series [4] is recorded as “No”. In the series with yopE expression (T3SS) (setting [10]), the “Inhibition of the T3SS (in words)” value is “no or modest inhibition”.

Consider “(-)-Hopeaphenol [compound 1, reference compound]”, for which, in series [3] (50 µM), the “Inhibition of T3SS-mediated cytotoxicity” value is recorded as “complete inhibition of cytotoxicity”. For the same compound, the “Reversibility of block of effector secretion (T3SS) after washing” value in series [6] is listed as “irreversibly block secretion of effector molecules”; in series [6] (listed as (-)-hopeaphenol), “irreversible”. The half-maximal inhibitory concentration (IC50) was 7 µM in the series with YopH secretion (T3SS) (setting [7]), 9 µM in series [5] and 10 µM in the series on yopE expression (T3SS) (setting [9]). For the same compound, the Growth inhibition entry in [1] (setting [8]) is “No”. In addition, the “Tocxicity P.a.” value in series [4] is listed as “No”.

On to `Oc1ccc(/C=C/c2cc(O)cc3c2[C@@H](c2cc(O)cc(O)c2)[C@H](c2ccc(O)cc2)O3)cc1` (racemic) [compound 7, (±)-Cis-ε-viniferin (Omega-viniferin)], for which the figures for the IC50 with YopH secretion (T3SS) and in the series on yopE expression (T3SS) were 48 µM and > 50 µM, respectively. Moreover, the Growth inhibition result in series [1] is “No”.

For the compound `Oc1ccc(/C=C/c2cc(O)cc3c2[C@@H](c2cc(O)cc(O)c2)[C@H](c2ccc(O)cc2)O3)cc1` (racemic) [compound 6, (±)-ε-Viniferin], in series [3], the “Efficacy Pa J774” value was “No”. Further, the figures for the 50% inhibitory concentration (IC50) (in the series on YopH secretion (T3SS); in [5]; in the series with yopE expression (T3SS)) were 30 µM, 89 µM and > 50 µM, respectively. In addition, the “Toxicity J774” value in the series with J774 cells is reported as “No”. Moreover, in series [1], the Growth inhibition result is “No”. Further, the “Tocxicity P.a.” value in [4] is reported as “No”.

The IC50 is the concentration at which inhibition is half-maximal.
